Reference: patent publication US10370410B2, “Cancer cell-targeting peptide and use thereof” (KYUNGPOOK NATIONAL UNIVERSITY INDUSTRY-ACADEMIC COOPERATION …, priority 2015, dated 2019)
Ends that are not written are not given here. FPI774 = near-infrared fluorescent reagent (label)

Key:
[1] = system: K-ras transgenic tumor cells; assay: Phage library screening and sequence analysis of phage clones; format: in vivo, mouse; conditions: phage clones from 4th and 5th screening rounds, sequence analysis
Description: To screen peptides having specificity to K-ras transgenic tumor cells in the T7 CX7C phage library prepared above, a random peptide phage library (1×10^11 pfu) were injected into a K-ras^LA2 transgenic mouse via the tail vein.
After 15 minutes, the tumor was excised from the lungs of the K-ras^LA2 transgenic mouse, finely ground, and added to a DMEM medium to prepare a cell suspension, which was then passed through a70-M filter (DAKO, Carpinteria, Calif., USA). The phages bound to the tumor were reacted with 1% NP-40 for 10 minutes for separation. Afterwards, the separated phages were recovered by treatment with cultured BL21 host bacteria. The phages that were recovered by the BL21 host bacteria and amplified were injected into a K-ras^LA2 transgenic mouse via the tail vein. Such a round of the screening of phage library was repeated five times. […] At the final 5th round, the multiplicative […] of the phage clones increased 162 times the first round. Afterwards, from the 4th round and the 5th rounds, a total of 49 clones were randomly selected for the sequencing.
DNA inserts of each of the 49 phage clones collected in Example 2-2 were sequenced by an automated DNA sequencer (Genotech Inc., Daegeon and SolGent Inc. Daegu) using a 96 pill primer (New England Biolabs). To find amino acid motifs shared between the common sequences or peptides, amino acid sequences deduced based on the nucleotide sequences were was aligned by using the Clustal W program. To find proteins having significant homology, NCBI BLAST search was performed with respect to peptide sequences. As a result of the sequence analysis of the peptides, four phage clones with high affinity for the K-ras transgenic tumor cells were confirmed, and the peptide sequences thereof were as follows: CKSRKDGAC (4R-3, SEQ ID NO: 1), CMPKRPSSC (4R-16, SEQ ID NO: 2), CRGTAEG (4R-21, SEQ ID NO: 3), and CRQTKN (5R-7, SEQ ID NO: 4).

[2] = system: tumor of K-ras^LA2 transgenic mouse; assay: Binding capability of phage clones to tumor (phage titer); format: in vivo; conditions: phage clone expressing the peptide administered into K-ras^LA2 transgenic mouse; FIG. 4B
Description: The phage clones that express each of the peptides were administered into the K-ras^LA2 transgenic mouse, and bound to tumor, and a titer of the phage clones was measured.

[3] = system: tumors of the K-ras^LA2 transgenic mouse; assay: Near-infrared fluorescence imaging of FPI774-labeled tumor-targeting peptides; format: in vivo; conditions: FPI774-labeled peptide, tail vein, 4 hours, FIG. 5
Description: To validate whether the peptides prepared in <Example 2-5> in the present invention were specifically transferred to the tumor cells of the K-ras^LA2 transgenic mouse, a control peptide and a peptide labeled with FPI774 and having SEQ ID NO: 1 to SEQ ID NO: 4 were injected into the K-ras^LA2 transgenic mouse and a normal mouse via the tail vein of each mouse. After 4 hours, the mice were sacrificed, and each organ thereof was extracted for the near-infrared fluorescence imaging using the eXplore Optix system (ART Inc, Montreal, Canada).

[4] = system: tumors of K-ras^LA2 transgenic mouse; assay: Target transfer capability of FPI774-CRQTKN peptide (near-infrared organ imaging); format: in vivo; conditions: tail vein, 4 hours; for fluorescence of FPI774 in the lungs: FIG. 6A
Description: To confirm the binding capability of the CRQTKN peptide (SEQ ID NO: 4) to the K-ras tumors, the FPI774-CRQTKN (SEQ ID NO: 13) peptide, which is a peptide labeled with a near-infrared fluorescent reagent FPI774, and a control peptide were administered into a K-ras^LA2 transgenic mouse and a normal mouse via the tail vein of each mouse.
After 4 hours, the mice were scarified, and each organ thereof was extracted for the near-infrared fluorescence imaging using the eXplore Optix system (ART Inc, Montreal, Canada).

CKSRKDGAC (4R-3 peptide) [tumor-targeting peptide … identified by phage library screening; tested as phage clone and as FPI774-labeled peptide]
affinity of phage clones for the K-ras transgenic tumor cells [1]: high affinity | binding capability of phage clone to the tumor (titer) [2]: greatest binding capability

CMPKRPSSC (4R-16 peptide) [tumor-targeting peptide … identified by phage library screening]
affinity of phage clones for the K-ras transgenic tumor cells [1]: high affinity

CRGTAEG (4R-21 peptide) [tumor-targeting peptide CRGTAEG identified by phage library screening]
affinity of phage clones for the K-ras transgenic tumor cells [1]: high affinity

CRQTKN: tumor-targeting peptide CRQTKN identified by phage library screening (5R-7 peptide)
affinity of phage clones for the K-ras transgenic tumor cells [1]: high affinity | transfer to the tumors (near-infrared fluorescence) [3]: most strongly transferred

FPI774-CRQTKN: CRQTKN peptide labeled with a near-infrared fluorescent reagent FPI774
fluorescence of FPI774 in the lungs ([4]; K-ras^LA2 transgenic mouse): strongly expressed | fluorescence of FPI774 in the lungs ([4]; normal mouse): not expressed | fluorescence of FPI774 in organs other than the lungs (kidney and liver) ([4]; FIG. 6B): not observed in general
